Among the data in US20120088759A1, “THIAZOLIDIN-4-ONE AND [1,3]-THIAZINAN-4-ONE COMPOUNDS AS OREXIN RECEPTOR ANTAGONISTS” (priority 2009, published 2012) are IC50 values, retold here.

The target in one test is T1, human orexin-1 receptor (Homo sapiens, UniProt O43613).
T1 construct: expressed in transfected cells; host or cells: CHO (Chinese hamster ovary) cells, kept under G418
T1 sequence (O43613 1-425): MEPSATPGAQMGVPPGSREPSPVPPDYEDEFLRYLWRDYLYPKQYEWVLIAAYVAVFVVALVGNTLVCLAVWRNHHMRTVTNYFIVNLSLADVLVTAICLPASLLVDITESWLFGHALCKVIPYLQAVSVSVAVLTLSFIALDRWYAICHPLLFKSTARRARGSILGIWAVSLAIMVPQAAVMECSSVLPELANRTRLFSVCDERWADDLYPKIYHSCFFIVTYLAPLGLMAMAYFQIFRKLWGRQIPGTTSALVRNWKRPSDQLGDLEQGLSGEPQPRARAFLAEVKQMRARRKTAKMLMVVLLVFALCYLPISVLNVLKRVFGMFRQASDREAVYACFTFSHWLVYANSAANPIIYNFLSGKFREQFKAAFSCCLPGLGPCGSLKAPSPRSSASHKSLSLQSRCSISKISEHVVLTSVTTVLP
In words: FLIPR intracellular calcium assay, orexin receptor antagonistic activity (OX1). The conditions noted are these: CHO cells expressing human orexin-1 receptor; 3 nM orexin-A; normalized to on-plate reference; *n = geometric mean from n values. The test is classed as cell-based. As for the experimental part: (§1) The orexin receptor antagonistic activity of the compounds of formula (I) is determined in accordance with the following experimental method.
(§2) Chinese hamster ovary (CHO) cells expressing the human orexin-1 receptor and the human orexin-2 receptor, respectively, are grown in culture medium (Ham F-12 with L-Glutamine) containing 300 μg/ml G418, 100 U/ml penicillin, 100 μg/ml streptomycin and 10% heat inactivated fetal calf serum (FCS). The cells are seeded at 20′000 cells/well into 384-well black clear bottom sterile plates (Greiner). The seeded plates are incubated overnight at 37° C. in 5% CO2.
(§3) Human orexin-A as an agonist is prepared as 1 mM stock solution in MeOH:water (1:1), diluted in HBSS containing 0.1% bovine serum albumin (BSA), NaHCO3: 0.375 g/l and 20 mM HEPES for use in the assay at a final concentration of 3 nM.
(§4) Antagonists are prepared as 10 mM stock solution in DMSO, then diluted in 384-well plates using DMSO followed by a transfer of the dilutions into in HBSS containing 0.1% bovine serum albumin (BSA), NaHCO3: 0.375 g/l and 20 mM HEPES. On the day of the assay, 50 μl of staining buffer (HBSS containing 1% FCS, 20 mM HEPES, NaHCO3: 0.375 g/l, 5 mM probenecid (Sigma) and 3 μM of the fluorescent calcium indicator fluo-4 AM (1 mM stock solution in DMSO, containing 10% pluronic) is added to each well. The 384-well cell-plates are incubated for 50 min at 37° C. in 5% CO2 followed by equilibration at rt for 30-120 min before measurement.
(§5) Within the Fluorescent Imaging Plate Reader (FLIPR Tetra, Molecular Devices), antagonists are added to the plate in a volume of 10 μl/well, incubated for 10 min and finally 10 μl/well of agonist is added. Fluorescence is measured for each well at 1 second intervals, and the height of each fluorescence peak is compared to the height of the fluorescence peak induced by 3 nM orexin-A with vehicle in place of antagonist. For each antagonist, the IC50 value (the concentration of compound needed to inhibit 50% of the agonistic response) is determined and normalized using the obtained IC50 value of a on-plate reference compound. Optimized conditions were achieved by adjustment of pipetting speed and cell splitting regime. The calculated IC50 values of the compounds may fluctuate depending on the daily cellular assay performance. Fluctuations of this kind are known to those skilled in the art.

The next test deals with T2, human orexin-2 receptor (Homo sapiens, UniProt O43614).
T2 construct: expressed in transfected cells; host or cells: CHO (Chinese hamster ovary) cells, kept under G418
T2 sequence (O43614 1-444): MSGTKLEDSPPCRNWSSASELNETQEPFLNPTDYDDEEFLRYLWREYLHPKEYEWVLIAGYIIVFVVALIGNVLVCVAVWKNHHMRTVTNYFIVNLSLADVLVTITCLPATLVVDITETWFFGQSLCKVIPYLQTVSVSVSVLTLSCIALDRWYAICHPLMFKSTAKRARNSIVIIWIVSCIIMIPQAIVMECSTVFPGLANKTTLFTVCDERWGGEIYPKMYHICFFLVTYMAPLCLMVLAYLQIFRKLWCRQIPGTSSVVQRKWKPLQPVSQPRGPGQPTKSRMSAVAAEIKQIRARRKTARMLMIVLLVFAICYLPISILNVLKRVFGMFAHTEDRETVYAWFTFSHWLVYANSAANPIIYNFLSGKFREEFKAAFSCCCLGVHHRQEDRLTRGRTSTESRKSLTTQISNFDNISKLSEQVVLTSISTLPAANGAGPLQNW
The test is described as follows: FLIPR intracellular calcium assay, orexin receptor antagonistic activity (OX2). Format: cell-based. The note with it: CHO cells expressing human orexin-2 receptor; 3 nM orexin-A; normalized to on-plate reference; *n = geometric mean from n values. How it is done: as §1, §2, §3, §4, §5
(In general: Calcium assays in cells follow changes in intracellular calcium, usually with a dye or a luminescent sensor.)

As a reminder, the IC50 is the concentration needed to halve the response being measured.

Take `CCOc1ccc(CN2C(=O)CSC2c2c(OC)cncc2OC)cc1` (stereo not drawn) [Example 29, 2-(3,5-Dimethoxy-pyridin-4-yl)-3-(4-ethoxy-benzyl)-thiazolidin-4-one]: the IC50 at human orexin-1 receptor came out at 1050 nM; on human orexin-2 receptor, 36 nM.

With `CCOc1ccc(CN2C(=O)CSC2c2c(OC)ccnc2OC)cc1` (stereo not drawn) [Example 26, 2-(2,4-Dimethoxy-pyridin-3-yl)-3-(4-ethoxy-benzyl)-thiazolidin-4-one], the IC50 amounted to 4300 nM on human orexin-1 receptor and 126 nM on human orexin-2 receptor.

In the case of `COc1cccc(OC)c1C1SCC(=O)N1Cc1ccc2ccccc2n1` (stereo not drawn) [Example 27, 2-(2,6-Dimethoxy-phenyl)-3-quinolin-2-ylmethyl-thiazolidin-4-one], the IC50 is 154 nM at human orexin-1 receptor and 18 nM at human orexin-2 receptor.

With `COc1cccc(Oc2ccc(CN3C(=O)CSC3c3c(OC)cccc3OC)cc2)n1` (stereo not drawn) [Example 282, 2-(2,6-Dimethoxy-phenyl)-3-[4-(6-methoxy-pyridin-2-yloxy)-benzyl]-thiazolidin-4-one], the IC50 at human orexin-1 receptor turned out to be 1950 nM; at human orexin-2 receptor, 127 nM.

As to `COc1ccc2cc(CN3C(=O)C(C)SC3c3c(OC)cccc3OC)ccc2c1` (stereo not drawn) [Example 31, 2-(2,6-Dimethoxy-phenyl)-3-(6-methoxy-naphthalen-2-ylmethyl)-5-methyl-thiazolidin-4-one], the IC50 at human orexin-1 receptor worked out at 11 nM; at human orexin-2 receptor it was 30 nM.

`CCOc1ccc(CN2C(=O)CSC2c2c(OC)cccc2OCC)cc1` (stereo not drawn) [Example 15, 3-(4-Ethoxy-benzyl)-2-(2-ethoxy-6-methoxy-phenyl)-thiazolidin-4-one]: the IC50 at human orexin-1 receptor is 853 nM; on human orexin-2 receptor, 48 nM.

`COc1cccc(OC)c1C1SCC(=O)N1Cc1ccc(OC(C)(C)C)cc1` (stereo not drawn) [Example 3, 3-(4-tert-Butoxy-benzyl)-2-(2,6-dimethoxy-phenyl)-thiazolidin-4-one]: the results for the IC50 on human orexin-1 receptor and at human orexin-2 receptor were 1420 nM and 120 nM, respectively.

As for `CCOc1ccc(CN2C(=O)CS(=O)(=O)C2c2c(OC)cccc2OC)cc1` (stereo not drawn) [Example 290, 2-(2,6-Dimethoxy-phenyl)-3-(4-ethoxy-benzyl)-1,1-dioxo-thiazolidin-4-one], the IC50 at human orexin-1 receptor was 375 nM; at human orexin-2 receptor, 21 nM.

For `COc1cc(C)cc(OC)c1C1SC(C)C(=O)N1Cc1ccc(OC(F)(F)F)cc1` (stereo not drawn) [Example 35, 2-(2,6-Dimethoxy-4-methyl-phenyl)-5-methyl-3-(4-trifluoromethoxy-benzyl)-thiazolidin-4-one], the figures for the IC50 on human orexin-1 receptor and on human orexin-2 receptor were 170 nM and 130 nM, respectively.

`COc1ccnc(OC)c1C1SCC(=O)N1Cc1ccc(OC(F)(F)F)cc1` (stereo not drawn) [Example 25, 2-(2,4-Dimethoxy-pyridin-3-yl)-3-(4-trifluoromethoxy-benzyl)-thiazolidin-4-one]: the IC50 on human orexin-1 receptor came to 561 nM; at human orexin-2 receptor it was 16 nM.

With `COc1cc(C2SC(C)C(=O)N2Cc2nc3ccccc3[nH]2)ccc1OCc1ccccc1` (stereo not drawn) [Example 265, 3-(1H-Benzoimidazol-2-ylmethyl)-2-(4-benzyloxy-3-methoxy-phenyl)-5-methyl-thiazolidin-4-one], the IC50 amounted to 2630 nM on human orexin-1 receptor and 533 nM on human orexin-2 receptor.

On to `COc1cccc(OC)c1C1SCC(=O)N1Cc1ccc(Oc2cnccn2)cc1` (stereo not drawn) [Example 279, 2-(2,6-Dimethoxy-phenyl)-3-[4-(pyrazin-2-yloxy)-benzyl]-thiazolidin-4-one], for which the IC50 was 1420 nM at human orexin-1 receptor and 32 nM on human orexin-2 receptor.

For the compound `COc1cncc(OC)c1C1SCC(=O)N1Cc1ccc(OC(F)(F)F)cc1` (stereo not drawn) [Example 28, 2-(3,5-Dimethoxy-pyridin-4-yl)-3-(4-trifluoromethoxy-benzyl)-thiazolidin-4-one], the IC50 on human orexin-1 receptor is 208 nM; on human orexin-2 receptor it was 16 nM.

For the compound `COc1ccc2c(C)noc2c1C1SCC(=O)N1Cc1ccc(OC(F)(F)F)cc1` (stereo not drawn) [Example 22, 2-(6-Methoxy-3-methyl-benzo[d]isoxazol-7-yl)-3-(4-trifluoromethoxy-benzyl)-thiazolidin-4-one], the IC50 on human orexin-1 receptor is 2360 nM; at human orexin-2 receptor, 19 nM.

On to `COc1cccc(OC)c1C1SCC(=O)N1Cc1ccc(Oc2ncccc2C)cc1` (stereo not drawn) [Example 285, 2-(2,6-Dimethoxy-phenyl)-3-[4-(3-methyl-pyridin-2-yloxy)-benzyl]-thiazolidin-4-one], for which the figures for the IC50 at human orexin-1 receptor and at human orexin-2 receptor were 1220 nM and 135 nM, respectively.

Take `CCOc1cccc(OC)c1C1SCC(=O)N1Cc1ccc(OC(F)(F)F)cc1` (stereo not drawn) [Example 16, 2-(2-Ethoxy-6-methoxy-phenyl)-3-(4-trifluoromethoxy-benzyl)-thiazolidin-4-one]: the IC50 on human orexin-1 receptor worked out at 454 nM; at human orexin-2 receptor, 24 nM.

Take `COc1cccc(OC)c1C1SC(C)(C)C(=O)N1Cc1ccc2ccccc2c1` (stereo not drawn) [Example 176, 2-(2,6-Dimethoxy-phenyl)-5,5-dimethyl-3-naphthalen-2-ylmethyl-thiazolidin-4-one]: the IC50 was found to be 20 nM on human orexin-1 receptor and 295 nM on human orexin-2 receptor.

On to `COc1cccc(OC)c1C1N(Cc2ccc(OC(C)C)cc2)C(=O)CS1(=O)=O` (stereo not drawn) [Example 289, 2-(2,6-Dimethoxy-phenyl)-3-(4-isopropoxy-benzyl)-1,1-dioxo-thiazolidin-4-one], for which the IC50 was 181 nM on human orexin-1 receptor and 16 nM on human orexin-2 receptor.

Take `CCOc1ccccc1CN1C(=O)CSC1c1c(OC)cccc1OC` (stereo not drawn) [Example 101, 2-(2,6-Dimethoxy-phenyl)-3-(2-ethoxy-benzyl)-thiazolidin-4-one]: the figures for the IC50 at human orexin-1 receptor and on human orexin-2 receptor were 488 nM and 51 nM, respectively.

Regarding `COc1cccc(OC)c1C1SCC(=O)N1Cc1ccc(OCC(F)(F)F)cc1` (stereo not drawn) [Example 18, 2-(2,6-Dimethoxy-phenyl)-3-[4-(2,2,2-trifluoro-ethoxy)-benzyl]-thiazolidin-4-one], the results for the IC50 at human orexin-1 receptor and at human orexin-2 receptor were 323 nM and 10 nM, respectively.

As for `COc1cccc(OC)c1C1SCC(=O)N1Cc1ccc(SC(F)(F)F)cc1` (stereo not drawn) [Example 139, 2-(2,6-Dimethoxy-phenyl)-3-(4-trifluoromethylsulfanyl-benzyl)thiazolidin-4-one], the IC50 on human orexin-1 receptor came to 440 nM; at human orexin-2 receptor, 30 nM.

In the case of `COc1cccc(OC)c1C1SCC(=O)N1Cc1ccc(Oc2ccccc2)cc1` (stereo not drawn) [Example 7, 2-(2,6-Dimethoxy-phenyl)-3-(4-phenoxy-benzyl)-thiazolidin-4-one], the IC50 on human orexin-1 receptor came to 244 nM; on human orexin-2 receptor it was 13 nM.

Turning to `COc1cccc(OC)c1C1SCC(=O)N1Cc1cccc(OC(F)(F)F)c1` (stereo not drawn) [Example 119, 2-(2,6-Dimethoxy-phenyl)-3-(3-trifluoromethoxy-benzyl)-thiazolidin-4-one], the IC50 was 355 nM on human orexin-1 receptor and 61 nM at human orexin-2 receptor.

On to `COc1cccc(OC)c1C1SCC(=O)N1Cc1ccc(Oc2ccc(C)nn2)cc1` (stereo not drawn) [Example 280, 2-(2,6-Dimethoxy-phenyl)-3-[4-(6-methyl-pyridazin-3-yloxy)-benzyl]-thiazolidin-4-one], for which the IC50 on human orexin-1 receptor amounted to 1740 nM; at human orexin-2 receptor, 121 nM.
